In patent US10744150B2, “Cyclic dinucleotides as anticancer agents” (BRISTOL-MYERS SQUIBB COMPANY, priority 2017, dated 2020):
Where two headings read alike, the source gives them in different places.

Key:
[1] = biological target: T1, STING WT: His-TVMV-S-hSTING(155-341)-H232R (Homo sapiens, UniProt Q86WV6, H232R); test: STING HTRF binding assay (time resolved FRET competition), STING WT; settings: 20 nM His-tagged STING cytoplasmic domain, 200 nM fluorescein-labeled cGAMP analog probe, one hour; read-out: HTRF Binding Assays IC50 STING WT
T1 construct: His-TVMV-S-hSTING(155-341)-H232R
T1 sequence (Q86WV6 with tags, fused parts or gaps H232R): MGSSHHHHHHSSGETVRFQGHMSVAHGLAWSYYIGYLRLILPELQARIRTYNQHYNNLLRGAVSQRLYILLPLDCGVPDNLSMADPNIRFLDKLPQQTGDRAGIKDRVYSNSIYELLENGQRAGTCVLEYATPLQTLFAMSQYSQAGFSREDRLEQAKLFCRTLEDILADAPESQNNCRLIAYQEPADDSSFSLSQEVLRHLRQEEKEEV
Protocol: (§1) A time resolved FRET-based competition binding assay was used to assess test article binding to STING WT and STING AQ. His-tagged STING cytoplasmic domain (WT or AQ) at a concentration of 20 nM was incubated with 2.5 nM Tb-labeled anti-His antibody, test compound, and fluorescein-labeled cGAMP analog probe (BioLog cat. no. C195) at a concentration of 200 nM (STING WT) or 40 nM (STING AQ) in PBS containing 0.005% Tween-20 and 0.1% BSA for one hour. Fluorescence at 495 nm and 520 nm was measured using an EnVision microplate reader to quantify FRET between Tb-labeled anti-His antibody and fluorescein-labeled probe. Background was defined as the signal obtained in the absence of STING protein, and background subtracted FRET ratios were normalized to the maximum signal obtained in the absence of test compound. These values were converted to a percent inhibition. Percent inhibition was determined for test compounds at 11 concentrations. The IC50, defined as the concentration of competing test compound needed to reduce specific binding of the probe by 50%, was calculated using the 4 parameter logistic equation to fit the data

IRF3 = test: STING THP1 reporter assay, IRF pathway (secreted luciferase Lucia, QUANTI-Luc); format: cell-based; settings: THP1-Dual cells, 10% human plasma, 100% activation = 100 μM cGAMP, luciferase readout, read-out: THP1 Reporter Assays EC50 IRF3
Description: (§2) THP1-Dual™ cells were derived from the human THP-1 monocyte cell line by stable integration of two inducible reporter constructs. To this end, THP1-Dual™ cells allow the simultaneous study of the NF-κB pathway, by monitoring the activity of SEAP, and the IRF pathway by assessing the activity of a secreted luciferase (Lucia). Both reporter proteins are readily measurable in the cell culture supernatant when using QUANTI-Blue™, a SEAP detection reagent, and QUANTI-Luc™, a luciferase detection reagent.
(§3) THP1-Dual™ cells induce the activation of NF-κB in response to STING agonists. They also trigger the IRF pathway upon stimulation with STING agonists, such as cGAMP. Here, the THP-1-Dual cells were used to assess STING binders for function on the cellular level.
(§4) Serial dilutions of compounds in DMSO were added to low volume 384 well plates at 100 nl/well using an ECHO acoustic dispenser (Labcyte, model 550) to achieve final starting concentration of 100 μM in cell suspension. THP-1 Dual™ STING reporter cells (Invivogen, Dual cells cat # THPD-nfis) were added to the plates with compounds at 15,000 cells in 10 μL per well in RPMI media (Gibco, cat #11875) containing 10% human plasma in a low volume 384-well black wall clear bottom tissue culture plate (Corning, cat #3542) for SEAP assay and low volume solid white plate (Corning, cat #3826) for luciferase assay. One column of the plate was reserved for treatment with cGAMP at 100 μM for 100% activation calculation and one column for no treatment (DMSO only) for baseline activation. Plates were then incubated in 37° C. incubator at 5% CO2 for 20 hours.
(§5) In the SEAP assay, 5 μl of 2× QuantiBlue (Invivogen, cat # Rep-qb2) is added to 384 well black plates seeded with THP1 cells and incubated at 37° C. for 2 hours. Plates were read on the Envision (Perkin Elmer) at 620 nm wavelength (OD620). In the luciferase assay, 5 μl of Quantiluc (Invivogen, Rep-qlc2) is added to white 384 well plates seeded with THP1 cells and read at 5 minutes on the Envision (Perkin Elmer) using a luminescence protocol (RLU). For both cell lines, 100% activation was determined by value (RLU) of THP-1 Dual STING cells stimulated with 100 μM cGAMP (Invivogen, cat # TLRL-NACGA23-5).

[2] = biological target: T2, STING AQ: His-TVMV-S-hSTING(155-341)-G230A-R293Q (Homo sapiens, UniProt Q86WV6, G230A/H232R/R293Q); test: STING HTRF binding assay (time resolved FRET competition), STING AQ; settings: 20 nM His-tagged STING cytoplasmic domain, 40 nM fluorescein-labeled cGAMP analog probe, one hour; read-out: HTRF Binding Assays IC50 STING AQ
T2 construct: His-TVMV-S-hSTING(155-341)-G230A-R293Q
T2 sequence (Q86WV6 with tags, fused parts or gaps G230A/H232R/R293Q): as the sequence (Q86WV6 with tags, fused parts or gaps H232R) above, with G99A, R162Q counted along it
Protocol: as §1

NFkB = test: STING THP1 reporter assay, NF-κB pathway (SEAP, QUANTI-Blue); format: cell-based; settings: THP1-Dual cells, 10% human plasma, 100% activation = 100 μM cGAMP
Description: as §2, §3, §4, §5

[3] = 20 hours, SEAP readout OD620, read-out: THP1 Reporter Assays EC50 NFkB
[4] = Homo sapiens, THP-1, 20 h, SEAP readout OD620, read-out: THP1 Reporter Assays EC50 NFkB

Row | Compound | IC50 [1] [µM] | EC50 (IRF3; 20 hours) [µM] | IC50 [2] [µM] | EC50 (NFkB; [3]) [µM] | EC50 (IRF3; Homo sapiens, THP-1, 20 h) [µM] | EC50 (NFkB; [4]) [µM]
1 | Nc1ncnc2c1ncn2[C@@H]1C[C@@H]2COP(=O)(S)O[C@H]3[C@@H](F)[C@H](n4cnc5c(N)ncnc54)O[C@@H]3COP(=O)(S)OC[C@H]21 (single isomer, unassigned) [Example 1-2] | 0.09 | 3 | 0.01 | 6 | – | –
2 | Nc1ncnc2c1ncn2[C@@H]1C[C@@H]2COP(O)(=S)O[C@H]3[C@@H](O)[C@H](n4cnc5c(O)ncnc54)O[C@@H]3COP(O)(=S)OC[C@H]21 (stereo partly drawn) [Example 16, (1S,6S,8R,9R,15R,17R,18R)-8-(6-amino-9H-purin-9-yl)-3,12,18-trihydroxy-17-(6-hydroxy-9H-purin-9-yl)-2,4,11,13,16-pentaoxa-3λ^5,12λ^5-diphosphatricyclo[13.3.0.0^6,9]octadecane-3,12-dithione] | 17.9 | – | 0.23 | – | > 100 | 31
3 | Nc1ncnc2c1ncn2[C@@H]1C[C@@H]2COP(O)(=S)O[C@@H]3[C@H](O)[C@@H](COP(O)(=S)OC[C@H]21)O[C@H]3n1cnc2c(O)nc3nccn3c21 (single isomer, unassigned) [Example 15-4] | 3.9 | > 100 | 0.47 | > 100 | – | –
4 | Nc1ncnc2c1ncn2[C@@H]1C[C@@H]2COP(O)(=S)O[C@@H]3[C@H](O)[C@@H](COP(O)(=S)OC[C@H]21)O[C@H]3n1cnc2c(O)nc3nccn3c21 (single isomer, unassigned) [Example 15-2] | 26.9 | > 100 | 1.8 | > 100 | – | –
5 | Nc1ncnc2c1ncn2[C@@H]1C[C@@H]2COP(=O)(S)O[C@H]3[C@@H](F)[C@H](n4cnc5c(N)ncnc54)O[C@@H]3COP(=O)(S)OC[C@H]21 (single isomer, unassigned) [Example 1-1] | 1.6 | > 100 | 0.06 | > 100 | – | –
6 | NC(=O)c1cccc2c1nnn2[C@@H]1C[C@@H]2COP(O)(=S)O[C@H]3[C@@H](F)[C@H](n4cnc5c(N)ncnc54)O[C@@H]3COP(O)(=S)OC[C@H]21 (single isomer, unassigned) [Example 13-4] | 3 | 86 | 0.05 | > 100 | – | –
7 | Nc1ncnc2c1ccn2[C@@H]1O[C@@H]2COP(O)(=S)OC[C@@H]3[C@@H](COP(O)(=S)O[C@H]2[C@@H]1F)C[C@H]3n1cnc2c(N)ncnc21 (single isomer, unassigned) [Example 8-1] | > 100 | – | – | 23 | > 100 | –
8 | Nc1ncnc2c1ncn2[C@@H]1C[C@@H]2COP(=O)(S)O[C@H]3[C@@H](F)[C@H](n4cnc5c(N)ncnc54)O[C@@H]3COP(=O)(S)OC[C@H]21 (single isomer, unassigned) [Example 2-1] | 24 | > 100 | 0.21 | > 100 | – | –
9 | Nc1nc2c(ncn2[C@@H]2C[C@@H]3COP(O)(=S)O[C@H]4[C@@H](F)[C@H](n5cnc6c(N)ncnc65)O[C@@H]4COP(O)(=S)OC[C@H]32)c(=O)[nH]1 (single isomer, unassigned) [Example 18-4] | 0.05 | > 100 | 0.004 | 74.5 | – | –
10 | Nc1ncnc2c1ccn2[C@@H]1O[C@@H]2COP(O)(=S)OC[C@@H]3[C@@H](COP(O)(=S)O[C@H]2[C@@H]1F)C[C@H]3n1cnc2c(N)ncnc21 (single isomer, unassigned) [Example 8-4] | > 100 | > 100 | 15.8 | > 100 | – | –
11 | Nc1ncnc2c1ncn2[C@@H]1O[C@@H]2COP(O)(=S)OC[C@@H]3[C@@H](COP(O)(=S)O[C@H]2[C@H]1F)C[C@H]3n1cnc2c(O)nc3nccn3c21 (single isomer, unassigned) [Example 3-3] | 0.18 | 33 | 0.14 | 58 | – | –
12 | NC(=O)c1cccc2c1nnn2[C@@H]1C[C@@H]2COP(O)(=S)O[C@H]3[C@@H](F)[C@H](n4cnc5c(N)ncnc54)O[C@@H]3COP(O)(=S)OC[C@H]21 (single isomer, unassigned) [Example 13-1] | > 100 | – | 85.1 | – | > 100 | > 100
13 | Nc1ncnc2c1ncn2[C@@H]1C[C@@H]2COP(O)(=S)O[C@@H]3[C@H](O)[C@@H](COP(O)(=S)OC[C@H]21)O[C@H]3n1cnc2c(O)nc3nccn3c21 (single isomer, unassigned) [Example 15-3] | 32.6 | > 100 | 1.2 | > 100 | – | –
14 | O=c1[nH]c2nccn2c2c1ncn2[C@@H]1O[C@@H]2COP(=O)(S)OC[C@@H]3[C@@H](COP(=O)(S)O[C@@H]1[C@@H]2O)C[C@H]3n1cnc2c(O)ncnc21 (single isomer, unassigned) [Example 14-1] | 83 | – | 4.5 | – | > 100 | > 100
15 | Nc1ncnc2c1ncn2[C@@H]1C[C@@H]2COP(O)(=S)O[C@H]3[C@H](F)[C@H](n4cnc5c(N)ncnc54)O[C@@H]3COP(O)(=S)OC[C@H]21 (single isomer, unassigned) [Example 17-1] | > 100 | – | > 100 | 2 | > 100 | –
16 | Nc1ncnc2c1ncn2[C@@H]1O[C@@H]2COP(O)(=S)OC[C@@H]3[C@@H](COP(O)(=S)O[C@H]2[C@H]1F)C[C@H]3n1cnc2c(=O)[nH]cnc21 (single isomer, unassigned) [Example 5-2] | 0.44 | > 100 | 0.02 | > 100 | – | –
17 | Nc1ncnc2c1ncn2[C@@H]1C[C@@H]2COP(O)(=S)O[C@H]3C[C@H](n4ccc5c(Cl)ncnc54)O[C@@H]3COP(=O)(S)OC[C@H]21 (single isomer, unassigned) [Example 6-2] | > 100 | > 100 | 82.6 | – | – | –
18 | Nc1ncnc2c1ncn2[C@@H]1C[C@@H]2COP(O)(=S)O[C@H]3C[C@H](n4ccc5c(Cl)ncnc54)O[C@@H]3COP(=O)(S)OC[C@H]21 (single isomer, unassigned) [Example 6-4] | > 100 | > 100 | 14.8 | – | – | –
19 | Nc1ncnc2c1ncn2[C@@H]1C[C@@H]2COP(O)(=S)O[C@H]3C[C@H](n4ccc5c(Cl)ncnc54)O[C@@H]3COP(=O)(S)OC[C@H]21 (single isomer, unassigned) [Example 6-3] | > 100 | > 100 | 31.9 | – | – | –
20 | Nc1ncnc2c1ncn2[C@@H]1C[C@@H]2COP(O)(=S)O[C@H]3[C@H](F)[C@H](n4ccc5c(Cl)ncnc54)O[C@@H]3COP(O)(=S)OC[C@H]21 (single isomer, unassigned) [Example 7-2] | > 100 | > 100 | – | > 100 | – | –
